From article PMC10967822, “Antimicrobial Indole-3-Carboxamido-Polyamine Conjugates Target Bacterial Membranes and Are Antibiotic Potentiators” (Biomolecules, 2024)
Values after ≈ are worked out from the molar mass of the structure shown. Values joined by “and” are separate entries in the source; they are usually repeats but may differ in a detail not shown here. Identical values can stand only once. Like-named read-outs stand apart in the source and are kept apart here. Marks after values point to notes of the source that are not given here.

What was measured:
E. coli ATCC 25922 [1] = test: Erythromycin potentiation against E. coli; assay type: cell-based, Escherichia coli; details: erythromycin at 2 µg/mL (2.7 µM); for Erythro/Ec: concentration required to restore erythromycin activity (combination MIC): mean n = 3
Text: (§1) These measurements were independently repeated in triplicate.

S. aureus ATCC 25923 [2] = details: ref Cadelis et al. [13]; cited from earlier work
MRSA ATCC 43300 [3] = test system: MRSA ATCC 43300; set-up: method as in Cadelis et al. [13]; details: ref Cadelis et al. [13]; cited from earlier work
P. aeruginosa ATCC 27853 [4] = details: cited from earlier work
E. coli ATCC 25922 [5] = test system: E. coli ATCC 25922; set-up: method as in Cadelis et al. [13]; details: ref Cadelis et al. [13]; cited from earlier work
[6] = test system: K. pneumoniae ATCC 700603; set-up: method as in Cadelis et al. [13]; details: ref Cadelis et al. [13]; cited from earlier work
A. baumannii ATCC 19606 [7] = test system: A. baumannii ATCC 19606; set-up: method as in Cadelis et al. [13]; details: ref Cadelis et al. [13]; cited from earlier work
C. albicans ATCC 90028 [8] = test system: C. albicans ATCC 90028; set-up: method as in Cadelis et al. [13]; details: ref Cadelis et al. [13]; cited from earlier work
[9] = test system: C. neoformans ATCC 208821; set-up: method as in Cadelis et al. [13]; details: ref Cadelis et al. [13]; cited from earlier work
P. aeruginosa ATCC 27853 [10] = details: cited from earlier work; remark: listed apart in the source
[11] = test system: HEK293 human embryonic kidney cells; set-up: method as in Cadelis et al. [13]; details: ref Cadelis et al. [13], read-out: Cytotoxicity IC50; cited from earlier work
human red blood cells [12] = details: cited from earlier work
S. aureus ATCC 25923 [13] = test: MIC, broth dilution, S. aureus; assay type: cell-based, Staphylococcus aureus
MRSA ATCC 43300 [14] = test: MIC, broth microdilution (CO-ADD), MRSA; assay type: cell-based, methicillin-resistant S. aureus; details: Staphylococcus aureus; MRSA ATCC 43300; top dose 32 µg/mL; read-out: MIC MRSA
P. aeruginosa ATCC 27853 [15] = test: MIC, broth dilution, P. aeruginosa; assay type: cell-based, Pseudomonas aeruginosa; details: Pseudomonas aeruginosa, ATCC27853
E. coli ATCC 25922 [16] = test: MIC, broth dilution, E. coli; assay type: cell-based, Escherichia coli; details: Escherichia coli, ATCC25922; E. coli ATCC 25922, 18 h
A. baumannii ATCC 19606 [17] = test: MIC, broth microdilution (CO-ADD), A. baumannii; assay type: cell-based, Acinetobacter baumannii; details: Acinetobacter baumannii, ATCC19606, top dose 32 µg/mL
C. albicans ATCC 90028 [18] = test: Antifungal MIC (CO-ADD), C. albicans; assay type: cell-based; details: Candida albicans, ATCC90028, top dose 32 µg/mL
In short: (§2)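 Yeast inocula prepared from YPD-agar colonies grown 3 days at 30 °C, diluted in YNB broth to 2.5 × 10^3 CFU/mL and incubated 36 h at 35 °C without shaking. C. albicans MIC read at OD530; C. neoformans MIC read at OD570–600 after 3 h with 0.006% resazurin.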

[19] = test system: C. neoformans ATCC 208821; test: Antifungal MIC (CO-ADD), C. neoformans; assay type: cell-based; details: Cryptococcus neoformans, ATCC208821, top dose 32 µg/mL
In short: as §2

P. aeruginosa ATCC 27853 [20] = test: Doxycycline potentiation against P. aeruginosa; assay type: cell-based, Pseudomonas aeruginosa; details: doxycycline at 2 µg/mL (4.5 µM)
Text: as §1

[21] = Cytotoxicity assay (resazurin); assay type: cell-based; details: human, HEK293 cells, mean n = 2
human red blood cells [22] = test: Hemolytic assay; assay type: cell-based; details: 10% hemolytic activity, mean n = 2
In short: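 Washed human erythrocytes (0.5 × 10^8 cells/mL in 0.9% NaCl) were incubated with compounds for 1 h at 37 °C. Haemoglobin release was read as supernatant OD405. HC10 and HC50 came from sigmoidal dose–response fits.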

S. aureus ATCC 25923 [23] = test: Real-time growth curves, S. aureus; assay type: cell-based, Staphylococcus aureus; details: for Concentration at which bacterial growth resumed after 2 h: S. aureus ATCC 25923, real-time growth
Protocol: The solutions of the compound at the concentrations of 2, 4, and 16 µg/mL were tested each in triplicate against S. aureus ATCC 25923. Typically, in a 96-well plate were placed 10 µL of 40, 80, and 320 µg/mL stock solutions of compound, as well as 190 µL of 5 × 10^5 CFU/mL of the selected bacterial suspension in brain heart infusion (BHI) broth. Positive controls containing only 200 µL of 5 × 10^5 CFU/mL of the bacterial suspension in BHI and negative controls containing only 200 µL of BHI broth were added. The plate was incubated at 37 °C in a TECAN Spark Reader (Roche Diagnostic, Meylan, France) and the real-time bacterial growth was followed by OD590 nm measurements every 20 min for 18 h.

P. aeruginosa PAO1 [24] = test: Real-time growth curves, P. aeruginosa; assay type: cell-based, Pseudomonas aeruginosa
S. aureus ATCC 25923 [25] = test: ATP efflux (membrane disruption), S. aureus; assay type: cell-based, Staphylococcus aureus; details: S. aureus ATCC 25923, single dose 100 µg/mL, relative to squalamine
Protocol: (§3) A solution of the compound was prepared in twice-distilled water at a fixed concentration of 100 μg/mL. The different Gram-positive suspensions were prepared in MH II broth and were incubated at 37 °C. Then, 90 µL of each bacterial suspension was added to 10 µL of the compound solution and shaken for 20 s in the incubator at 37 °C. Subsequently, 50 µL of Luceferin–Luciferase reagent (Yelen, Marseille, France) was added to the mixture, and the luminescent signal was quantified with an Infinite M200 microplate reader (Tecan, Männedorf, Switzerland) for 6 readings spaced 30 s apart. The ATP concentration was quantified by internal sample addition. Squalamine (100 µg/mL) was used as the positive control to quantify the maximum level of ATP efflux and water as the negative control. This assay was performed in three independent experiments.

MRSA = test: ATP efflux (membrane disruption), MRSA; assay type: cell-based, methicillin-resistant S. aureus; details: single dose 100 µg/mL, relative to squalamine
Protocol: as §3

P. aeruginosa PAO1 [26] = test: Nitrocefin hydrolysis assay (outer membrane permeabilization); assay type: cell-based, Pseudomonas aeruginosa; details: P. aeruginosa PAO1, top dose 128 µg/mL
Protocol: Outer membrane permeabilization was measured using nitrocefin as a chromogenic substrate of periplasmic β-lactamase. A total of 10 milliliters of MH broth were inoculated with 0.1 mL of an overnight culture of PAO1 bacteria and grown at 37 °C until the OD600 reached 0.5. The remaining steps were performed at room temperature. The cells were recovered by centrifugation (4000 rpm for 20 min) and washed once in 20 mM potassium phosphate buffer (pH 7.2) containing MgCl2 (1 mM). After a second centrifugation, the pellet was resuspended and adjusted to OD600 of 0.5. Then, 50 µL of the desired compound was added to 100 µL of the cell suspension to obtain a final concentration varying from 3.9 µM to 250 µM. A total of 50 microliters of nitrocefin was then added to obtain a final concentration of 50 µg/mL. Nitrocefin hydrolysis was monitored spectrophotometrically by measuring the increase in absorbance at 490 nm. The assays were performed in 96-well plates using a M200 Pro Tecan (Tecan, Männedorf, Switzerland) spectrophotometer.

[27] = test system: K. pneumoniae ATCC 700603; test: MIC, broth microdilution (CO-ADD), K. pneumoniae; details: top dose 32 µg/mL

## O=C(NCCCNCCCCNCCCNC(=O)c1c[nH]c2ccc(Br)cc12)c1c[nH]c2ccc(Br)cc12 [Compound 3, α,ω-di-(5-bromoindole-3-carboxamido)spermine]
E. coli ATCC 25922 [1]
  Erythro/Ec: concentration required to restore erythromycin activity (combination MIC): 100 µM
S. aureus ATCC 25923 [2]
  MIC Sa: 4.8 ^i µM
MRSA ATCC 43300 [3]
  MIC MRSA: 12.4 ^i µM
P. aeruginosa ATCC 27853 [4]; ref Cadelis et al. [13]
  MIC Pa: 200 ^i µM
E. coli ATCC 25922 [5]
  MIC Ec: 200 ^i µM
[6]
  MIC Kp: >50 ^i µM
A. baumannii ATCC 19606 [7]
  MIC Ab: >50 ^i µM
C. albicans ATCC 90028 [8]
  MIC Ca: 49.5 ^i µM
[9]
  MIC Cn: 12.4 ^i µM
P. aeruginosa ATCC 27853 [10]; doxycycline at 2 µg/mL (4.5 µM), P. aeruginosa ATCC 27853, ref Cadelis et al. [13]
  Dox/Pa: concentration required to restore doxycycline activity (combination MIC): 3.125 µM
P. aeruginosa ATCC 27853 [10]; doxycycline at 2 µg/mL, P. aeruginosa ATCC 27853, ref Cadelis et al. [13]
  Dox/Pa fold-change (intrinsic MIC / combination MIC): 64 fold
[11]
  IC50: > 50 µM
Human red blood cells [12]
  Hemolysis HC10: >50 ^c µM

## O=C(NCCCNCCCCCCNCCCNC(=O)c1c[nH]c2ccc(Br)cc12)c1c[nH]c2ccc(Br)cc12 [Compound 13b]
S. aureus ATCC 25923 [13]; S. aureus ATCC 25923, 18 h, read-out: MIC Sa
  MIC: 2.2 µM
S. aureus ATCC 25923 [13]; Staphylococcus aureus, ATCC25923, S. aureus ATCC 25923, 18 h, read-out: MIC Sa
  MIC: 2.2 µM
S. aureus ATCC 25923 [13]; Staphylococcus aureus, ATCC25923, read-out: MIC S. aureus (microdilution)
  MIC: 2 µg/mL
MRSA ATCC 43300 [14]
  MIC: ≤ 0.28 µM
P. aeruginosa ATCC 27853 [15]; P. aeruginosa ATCC 27853, 18 h, read-out: MIC Pa
  MIC: 71 µM
P. aeruginosa ATCC 27853 [15]; read-out: MIC P. aeruginosa (microdilution)
  MIC: 64 µg/mL
E. coli ATCC 25922 [16]
  MIC: 6.92 µM (≈ 4.67 µg/mL)
A. baumannii ATCC 19606 [17]
  MIC: ≤ 0.28 µM
C. albicans ATCC 90028 [18]
  MIC: > 35 µM
[19]
  MIC: ≤ 0.28 µM
P. aeruginosa ATCC 27853 [20]; P. aeruginosa ATCC 27853
  Dox/Pa fold-change (intrinsic MIC / combination MIC): 21 fold
P. aeruginosa ATCC 27853 [20]; P. aeruginosa ATCC 27853, mean n = 3
  Dox/Pa: concentration required to restore doxycycline activity (combination MIC): 3.46 µM
E. coli ATCC 25922 [1]; E. coli
  Erythro/Ec fold-change (intrinsic MIC / combination MIC): 1 fold
E. coli ATCC 25922 [1]
  Erythro/Ec: concentration required to restore erythromycin activity (combination MIC): 6.92 µM
[21]
  IC50 at 20 h: > 35 µM
Human red blood cells [22]
  Hemolysis HC10: >35 µM
S. aureus ATCC 25923 [23]; S. aureus ATCC 25923, 18 h
  Concentrations giving complete inhibition in real-time growth curves: 32 to 2 μg/mL and 35.5 to 2.2 μM
S. aureus ATCC 25923 [23]
  Concentration at which bacterial growth resumed after 2 h: 1 μg/mL and 1.1 μM
P. aeruginosa PAO1 [24]
  Concentration at which bacterial growth resumed after 4 h: 35.5 μM and 32 μg/mL
S. aureus ATCC 25923 [25]
  ATP release (membrane disruption): more potent of the two compounds
MRSA
  ATP release (membrane disruption): more potent of the two compounds
P. aeruginosa PAO1 [26]
  Outer membrane disruption (nitrocefin hydrolysis): able to disrupt the outer membrane only at the top dose
[27]
  MIC Kp: >35 µM

## O=C(Cc1c[nH]c2ccc(Br)cc12)NCCCNCCCCCCCNCCCNC(=O)Cc1c[nH]c2ccc(Br)cc12 [Compound 19, reference compound]
S. aureus ATCC 25923 [23]
  Concentration at which bacterial growth resumed after 2 h: 8.5 μM and 8 μg/mL
P. aeruginosa PAO1 [24]
  Concentration at which bacterial growth resumed after 4 h: 128 μg/mL and 135.5 μM
S. aureus ATCC 25923 [25]
  ATP release (membrane disruption): noticeably less active than the positive control squalamine
MRSA
  ATP release (membrane disruption): noticeably less active than the positive control squalamine
P. aeruginosa PAO1 [26]
  Outer membrane disruption (nitrocefin hydrolysis): inactive at all test doses
P. aeruginosa ATCC 27853 [4]
  MIC P. aeruginosa: 100 μg/mL and 106 μM
P. aeruginosa ATCC 27853 [10]; doxycycline potentiation
  Combined MIC with doxycycline against P. aeruginosa: 6.6 µM
  Fold enhancement with doxycycline against P. aeruginosa: 18 fold
